The text below walks through data of patent publication EP0007648A1, “New acylureas with pharmaceutical activity, the process for their preparation, and pharmaceutical compositions which contain them” (Investigacion Tecnica Y Aplicada, S.A., priority 1978, dated 1980).

In one series the test system is Platelet aggregation. The series is described as follows: Anti platelet aggregation activity "ex vivo" (Born), ADP-induced aggregation after administration by gastric catheter. Type of series: in vivo, rats, Sprage Dawley. Particulars: for inhibition at 200 mg/kg: Dose 200 mg/kg p.o., rats, ADP-induced, 5 hours after administration; for anti platelet aggregation activity (in words): compared with acetilsalicilic acid given in a double dose. The text has this: Platelet aggregation is induced by ADP (adenosindiphosphate) and measured in an aggregometer(Bryston) connected to a model R Omniscriber recorder.

The next series has as its system lactescence of the serum. The series is described as follows: Hyperlipaemia activity: lactescence of the serum after oral olive oil. It counts as in vivo. As to conditions: for Activity; Hyper Lipaemia (%): Dose 200 mg/kg orally, suspended in 10 ml/kg of olive oil, serum lactescence 6 hours after administration; for hyperlipaemia activity (in words): against clofibrate. As to the method:
For the determination of the hyperlipaemia activity the products were administered orally suspended in 10 ml/kg of olive oil evaluating the lactescence of the serum 6 hours after administration.

A short description of a further series: in vivo. Particulars: mouse, ip, NMRI male mice, suspended in Tween 80 at 1% plus CMC at 2% in physiological serum, read-out: LD 50 mg/kg. i.p. NMRI mouse. As to the method:
The products were administered via intraperitoneal, suspended in Tween 80 at 1% plus CMC at 2% in physiological serum.
The reference standard used was phenolbutazone.

The test system of series [1] is hypercholesterolaemia induced by the administration of Triton WR 1339. The series is described as follows: Hypercholesterolaemia induced by Triton WR 1339 (Garattini et al.). It counts as in vivo. As to conditions: among the products examined. The text has this:
To determine the hypercholesterolaemia activity tests have been conducted with hypercholesterolaemia induced by the administration of Triton WR 1339 in accordance with S. Garattini C.Morpurgo and Passerini (Experiment 12 (1956)347). The results obtained using clofibrate (ethyl […] of p-chlorophenoxyisobutiric acid), as a reference standard are shown in Table II below.

Where [2] appears, read: Rattus norvegicus, Platelet, po.

In general, inhibition refers to the change of the read-out against control, counted positive when it falls. With `CC(=O)Oc1ccccc1C(=O)O` [Acelylsalicilic acid, reference compound], the inhibition at 400 mg/kg in the series on Platelet aggregation (Rattus norvegicus, Platelet, po, 5 h, read-out: Anti platelet aggregation p.o. % inhibition (5 hours)) came to 86.3%.
For the molecule `CCOC(=O)C(C)(C)Oc1ccc(Cl)cc1` [Clofibrate, ethyl esther of p-chlorophenoxyisobutiric acid, reference compound], the “Activity; Hyper Lipaemia (%)” value in the series on lactescence of the serum is 22,8%.
Take `O=C(COc1ccc(Cl)cc1)NC(=O)NCN1CCOCC1` [ITA-372, N-(p-chlorophenoxy)acetyl N' -morpholinomethylurea]: the LD50 in “in vivo” came to 300 mg/kg. Also, in the series with Platelet aggregation (setting [2]), at 200 mg/kg the inhibition was 8.1%.
The like results for `O=C(NCN1CCOCC1)NC(=O)C(Oc1ccc(Cl)cc1)Oc1ccc(Cl)cc1` [ITA-373, N-[bis(p-chiorophenoxy)] acetyl -N'-morpholinomethylurea] were, in that order, 1700 mg/kg and 11.9%.
As for `CC(C)(Oc1ccc(C(=O)c2ccc(Cl)cc2)cc1)C(=O)NC(N)=O` [ITA-374, N-2-[p-(p' -chlorobenzoil)phenoxy]-2-methylpropionylurea], the LD50 in the series “in vivo” was > 3000 mg/kg. Further, in the series with Platelet aggregation (setting [2]), 200 mg/kg produced 16.1% inhibition. Also, the “Activity; Hyper Lipaemia (%)” value in the series with lactescence of the serum is 28,2%.
Consider `CC(C)(Oc1ccc(C(=O)c2ccc(Cl)cc2)cc1)C(=O)NC(=O)NCN1CCOCC1` [ITA-375, N-2-[p-(p'-chlorobenzoil)phenoxy]-2-methylpropionyl-N'-morpholine methylurea], for which, in the series “in vivo”, the LD50 stood at 950 mg/kg. This molecule also had an inhibition at 200 mg/kg in the series with Platelet aggregation (setting [2]) of 68.5%. For the same molecule, in the series with Platelet aggregation, the “anti platelet aggregation activity (in words)” value was “stand out in their anti platelet aggregation activity”. For the same molecule, the “hypercholesterolaemia activity (in words)” value in series [1] is recorded as “stands out for its efficacity”. In addition, in the series with lactescence of the serum, the “Activity; Hyper Lipaemia (%)” value was 41,1% and the “hyperlipaemia activity (in words)” value was “stand out in this activity”.
Regarding `CC(C)Cc1ccc(C(C)C(=O)NC(=O)NCN2CCOCC2)cc1` (stereo not shown) [ITA-376, N-2-(p-isobutylphenyl) propionyl-N'-morpholinomethylurea], the LD50 in “in vivo” amounted to 1800 mg/kg. Also, the inhibition at 200 mg/kg with Platelet aggregation (setting [2]) was 12.7%. The “Activity; Hyper Lipaemia (%)” value with lactescence of the serum is listed as 1,3%.
On the same counts, the results for `COc1ccc2c(c1)c(CC(=O)NC(=O)NCN1CCOCC1)c(C)n2C(=O)c1ccc(Cl)cc1` [ITA-377, N-[1-(p-chiorobenzoil) -2-methyl-5-methoxyindol-3-il]acetyl-N' -morpholinomethylurea] are > 3000 mg/kg, 5.3% and 12,6%.
`O=C(NCN1CCOCC1)NC(=O)c1cccnc1` [ITA-378, N-nicotinoil-N'-morpholino methylurea]: in “in vivo”, the LD50 amounted to 1700 mg/kg. Also, 200 mg/kg produced 81.9% inhibition with Platelet aggregation (setting [2]). Moreover, the “anti platelet aggregation activity (in words)” value with Platelet aggregation was “stand out in their anti platelet aggregation activity”. In the series on lactescence of the serum, the “Activity; Hyper Lipaemia (%)” value was 54,7% and the “hyperlipaemia activity (in words)” value was “stand out in this activity”.
In the case of `COc1ccccc1C(=O)NC(=O)NCN1CCOCC1` [ITA-418, N-(2-methoxybenzoil)-N'-morpholinomethylurea], in “in vivo”, the LD50 was 1100 mg/kg. Moreover, the inhibition at 200 mg/kg in the series on Platelet aggregation (setting [2]) was 68%.
